# From ChEMBL document CHEMBL1201862, “PubChem BioAssay data set” (2004)
# The source made the active and inactive calls.
# Tests used:
# [1] = molecular target: Induced myeloid leukemia cell differentiation protein Mcl-1 (Homo sapiens, UniProt Q07820); format: functional
# [2] = molecular target: T1, Replicative DNA helicase DnaB (Mycobacterium tuberculosis, UniProt P9WMR3); experiment: DnaB intein splicing inhibitors, dose response, biochemical, cell-free fluorescence (AID 449749); format: functional
# T1 sequence (P9WMR3 whole entry): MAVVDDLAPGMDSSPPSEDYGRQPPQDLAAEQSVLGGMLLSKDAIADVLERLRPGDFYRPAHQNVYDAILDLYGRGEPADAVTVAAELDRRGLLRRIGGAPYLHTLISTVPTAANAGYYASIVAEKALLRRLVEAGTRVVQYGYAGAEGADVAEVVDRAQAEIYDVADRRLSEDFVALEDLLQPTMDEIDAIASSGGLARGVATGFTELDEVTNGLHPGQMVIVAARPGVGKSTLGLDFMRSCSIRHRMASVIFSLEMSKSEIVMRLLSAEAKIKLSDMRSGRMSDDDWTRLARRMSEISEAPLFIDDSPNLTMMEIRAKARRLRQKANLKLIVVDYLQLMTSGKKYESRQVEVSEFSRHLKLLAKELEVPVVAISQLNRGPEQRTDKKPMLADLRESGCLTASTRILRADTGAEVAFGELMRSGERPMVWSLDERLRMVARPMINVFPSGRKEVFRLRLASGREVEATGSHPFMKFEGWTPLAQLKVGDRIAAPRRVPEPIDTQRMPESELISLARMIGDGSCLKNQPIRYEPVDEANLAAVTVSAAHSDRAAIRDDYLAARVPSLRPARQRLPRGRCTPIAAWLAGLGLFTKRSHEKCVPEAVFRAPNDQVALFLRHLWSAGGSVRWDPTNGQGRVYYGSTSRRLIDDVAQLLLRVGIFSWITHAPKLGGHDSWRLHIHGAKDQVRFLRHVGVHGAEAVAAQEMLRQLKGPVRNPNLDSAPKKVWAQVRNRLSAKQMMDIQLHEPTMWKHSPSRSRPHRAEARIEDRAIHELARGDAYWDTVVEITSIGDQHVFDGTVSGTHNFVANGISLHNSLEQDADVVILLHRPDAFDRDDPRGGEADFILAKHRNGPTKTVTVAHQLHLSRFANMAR
# [3] = molecular target: T2, Mannose-6-phosphate isomerase (Homo sapiens, UniProt P34949); experiment: human PMI inhibitors, high substrate, primary screen, biochemical, fluorescence intensity, high mannose 6-phosphate (AID 1220)
# T2 sequence (P34949 whole entry): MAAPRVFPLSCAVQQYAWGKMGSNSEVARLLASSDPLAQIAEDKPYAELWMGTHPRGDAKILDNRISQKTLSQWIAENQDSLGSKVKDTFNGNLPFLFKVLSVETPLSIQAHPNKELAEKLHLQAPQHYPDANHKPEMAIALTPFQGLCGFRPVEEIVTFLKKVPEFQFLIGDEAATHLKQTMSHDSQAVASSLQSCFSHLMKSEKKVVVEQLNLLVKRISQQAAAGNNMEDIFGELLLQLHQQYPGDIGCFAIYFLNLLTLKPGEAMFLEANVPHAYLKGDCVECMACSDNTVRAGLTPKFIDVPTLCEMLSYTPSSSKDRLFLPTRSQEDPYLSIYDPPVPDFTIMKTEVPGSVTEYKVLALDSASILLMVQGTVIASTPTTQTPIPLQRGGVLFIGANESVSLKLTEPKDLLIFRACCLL
# Genome polyprotein = Genome polyprotein (dengue virus type 2, UniProt P29990); experiment: Dengue-2 NS5 methyltransferase inhibitors, primary screen, biochemical, confirmation dose response (AID 588689); format: functional
# [4] = molecular target: T3, Alkaline phosphatase, tissue-nonspecific isozyme (Homo sapiens, UniProt P05186); experiment: TNAP enzyme inhibition by screening hits, dose response, selectivity assay for mouse IAP inhibitor project, biochemical, human TNAP, uHTS hits (AID 488906); format: functional
# T3 sequence (P05186 whole entry): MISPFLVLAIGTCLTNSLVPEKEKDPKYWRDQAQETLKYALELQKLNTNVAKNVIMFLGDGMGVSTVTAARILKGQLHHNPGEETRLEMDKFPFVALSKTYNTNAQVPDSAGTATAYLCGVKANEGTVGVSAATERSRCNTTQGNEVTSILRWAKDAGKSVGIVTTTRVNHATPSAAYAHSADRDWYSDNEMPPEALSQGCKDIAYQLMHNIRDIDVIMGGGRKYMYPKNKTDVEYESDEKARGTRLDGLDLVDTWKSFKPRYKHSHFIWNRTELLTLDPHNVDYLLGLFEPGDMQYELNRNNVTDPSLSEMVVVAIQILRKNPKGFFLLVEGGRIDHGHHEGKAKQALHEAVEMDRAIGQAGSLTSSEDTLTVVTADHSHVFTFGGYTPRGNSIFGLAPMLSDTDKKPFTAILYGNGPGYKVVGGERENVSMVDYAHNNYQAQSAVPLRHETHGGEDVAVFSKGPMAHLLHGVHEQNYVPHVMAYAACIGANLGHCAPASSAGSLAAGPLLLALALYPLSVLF
# Chain of Genome polyprotein (P29990 2492-3391 limits assumed): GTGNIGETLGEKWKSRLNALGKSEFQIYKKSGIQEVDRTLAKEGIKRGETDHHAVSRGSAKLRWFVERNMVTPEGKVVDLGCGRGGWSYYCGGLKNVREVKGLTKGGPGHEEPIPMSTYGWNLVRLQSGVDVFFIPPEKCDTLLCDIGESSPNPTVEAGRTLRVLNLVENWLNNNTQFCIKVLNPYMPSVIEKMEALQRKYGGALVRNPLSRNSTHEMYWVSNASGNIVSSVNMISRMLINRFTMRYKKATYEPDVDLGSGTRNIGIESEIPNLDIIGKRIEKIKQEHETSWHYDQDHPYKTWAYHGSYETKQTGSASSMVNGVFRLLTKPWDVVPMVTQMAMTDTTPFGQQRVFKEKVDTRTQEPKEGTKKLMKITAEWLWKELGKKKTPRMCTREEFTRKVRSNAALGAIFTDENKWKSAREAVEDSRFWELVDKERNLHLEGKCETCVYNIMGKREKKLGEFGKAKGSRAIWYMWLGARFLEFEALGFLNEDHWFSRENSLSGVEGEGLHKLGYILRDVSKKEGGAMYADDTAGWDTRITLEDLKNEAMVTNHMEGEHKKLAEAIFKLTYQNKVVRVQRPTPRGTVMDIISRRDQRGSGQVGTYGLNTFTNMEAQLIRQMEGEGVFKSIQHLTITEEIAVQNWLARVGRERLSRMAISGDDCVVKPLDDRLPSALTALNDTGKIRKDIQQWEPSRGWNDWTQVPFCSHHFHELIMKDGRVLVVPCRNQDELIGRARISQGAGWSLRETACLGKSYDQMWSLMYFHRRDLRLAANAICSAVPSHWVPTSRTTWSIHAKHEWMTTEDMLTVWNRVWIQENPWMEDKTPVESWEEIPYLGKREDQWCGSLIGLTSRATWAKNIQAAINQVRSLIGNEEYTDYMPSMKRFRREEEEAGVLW
# Chain of Induced myeloid leukemia cell differentiation protein Mcl-1 (Q07820 whole entry): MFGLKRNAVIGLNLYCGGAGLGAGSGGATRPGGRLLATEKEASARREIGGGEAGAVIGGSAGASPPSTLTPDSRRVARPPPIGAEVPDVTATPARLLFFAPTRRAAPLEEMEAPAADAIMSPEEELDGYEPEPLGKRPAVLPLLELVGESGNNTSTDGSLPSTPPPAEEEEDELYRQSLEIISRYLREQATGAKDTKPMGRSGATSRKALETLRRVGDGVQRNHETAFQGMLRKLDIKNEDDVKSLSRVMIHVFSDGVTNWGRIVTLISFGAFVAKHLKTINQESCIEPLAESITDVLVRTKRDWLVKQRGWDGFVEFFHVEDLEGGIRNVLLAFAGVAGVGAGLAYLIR
SMILES,IC50 [1],AC50 [2],IC50 [3],IC50 (Genome polyprotein),IC50 [4]
Cc1cc(C)c(S(=O)(=O)Nc2cc(SCC(=O)O)c(O)c3ccccc23)cc1C,10.5 µM (active),1.1 µM (active),,,
O=C(O)c1cc(N2N=C(C(F)(F)F)/C(=C/C=C/c3ccco3)C2=O)ccc1Cl,4.69 µM (active),,> 50 µM (not active),24.2 µM (active),
O=C(/C=C/c1ccco1)NC(=S)Nc1cccc(C(=O)O)c1,,,,,76.1 µM (active)
CNCc1ccccc1Sc1ccc(O)c(O)c1,,> 120 µM (inactive),25.9 µM (active),21.2 µM (active),
